Reference: patent publication US20250282830A1, “ANTI-VIRAL PEPTIDE COMPOSITIONS AND METHODS TO IMPROVE BIOLOGICAL ACTIVITY THEREOF” (priority 2021, published 2025)

Assays:
[1] = Time-lapse fluorescence microscopy imaging of peptide-induced vesicle rupture; details: small and large tethered vesicles
Method: Highly parallel measurements of peptide-induced liposome rupture were conducted by time-lapsed epifluorescence microscopy imaging. An Eclipse Ti-E inverted microscope (Nikon) with a high-pressure mercury lamp, a CFI Plan Apochromat TIRF×60 oil-immersion objective (NA 1.49; Nikon) and an Andor iXon3 897 EMCCD camera (Andor Technology), was utilized for measurements. The samples were illuminated with a mercury lamp (Intenslight C-HGFIE) using a TRITC filter set. Briefly, glass coverslips were assembled into a microfluidic flow cell, and coated with a thin layer of PLL-g-PEG(-biotin), followed by tethering of 0.025 μg ml^−1 liposomes via biotin-neutravidin coupling. Peptide was then added at a volumetric rate of 100 μl min^−1, and micrographs were recorded every 5-30 s depending on the particular experiment. The initial time was defined by when the peptide solution entered the channel inlet. Data processing and analysis were conducted using ImageJ (National Institutes of Health) and Python(x,y) software packages. The diameter of individual liposomes was estimated based on fluorescence intensity values. […]
Using time-lapse fluorescence microscopy imaging, we further investigated the interactions of different versions of Peptides 2 and 4 with tethered vesicles at the single-vesicle level and saw different degrees of vesicle rupture in terms of total extent and speed (FIG. 14).

DENV-1 = assay: Plaque reduction neutralization assay, DENV-1; format: cell-based, Dengue virus serotype 1; details: Vero cells; virus pre-incubated with peptide 1 h at 37° C.; read-out: DENV-1 PRNT50
Method: (§1) Vero cells were seeded at 1×10^5 cells per well and incubated overnight. Twofold serial dilutions of peptide were incubated with 200-300 p.f.u. of virus for 1 h at 37° C. Cells were infected with the virus-peptide mixture for 1 h at 37° C. The inoculum was removed and 0.8% (wt/vol) methylcellulose in medium supplemented with 1% FBS was added. After 3-5 days incubation, plates were fixed and analysed for plaques by immunostaining (DENV). For immunostaining, the cells were fixed, followed by incubation with 4G2, a mouse anti-DENV E protein monoclonal antibody (1:2,000 dilution), for 16-20 h. After addition of a secondary antibody, goat anti-mouse IgG (H+L)-HRP conjugate (1:2,000 dilution), the TrueBlue peroxidase substrate (KPL) was added and the optical density was measured at a wavelength of 450 nm. For crystal violet staining, cells were fixed with fixing solution (5% glutaric dialdehyde in Dulbecco's PBS) followed by staining with 0.1% crystal violet in fixing solution. The IC50 value was calculated by comparing the relative number of plaques in peptide-treated samples to virus-only samples using a four-parameter logistic curve fit.

DENV-2 = assay: Plaque reduction neutralization assay, DENV-2; format: cell-based, Dengue virus serotype 2; details: Vero cells; virus pre-incubated with peptide 1 h at 37° C.; read-out: DENV-2 PRNT50
Method: as §1

DENV-3 = assay: Plaque reduction neutralization assay, DENV-3; format: cell-based, Dengue virus serotype 3; details: Vero cells; virus pre-incubated with peptide 1 h at 37° C.; read-out: DENV-3 PRNT50
Method: as §1

DENV-4 = assay: Plaque reduction neutralization assay, DENV-4; format: cell-based, Dengue virus serotype 4; details: Vero cells; virus pre-incubated with peptide 1 h at 37° C.; read-out: DENV-4 PRNT50
Method: as §1

[2] = Pharmacokinetic characterization; format: in vivo, BALB/c mice; details: mice
Method: Male BALB/c mice (InVivos) aged 8-9 weeks were used during the pharmacokinetic characterization experiments. In brief, mice were anaesthetized by isoflurane. AH-D peptide solution (25 mg kg^−1) was then administered by the intravenous (i.v.) route (tail vein). Blood samples were taken by cardiac puncture under isoflurane anaesthesia at regular time points after injection (eight time points per compound). The administered dose was maintained at 5 ml kg^−1. Selected organs were collected after euthanasia and were stored at −80° C. until bioanalysis. Blood samples were mixed with deionized water while tissue samples were homogenized in deionized water before extraction. The samples were then treated with phosphoric acid (5 μl), followed by acetonitrile (25 μl) that contained 15 ng ml^−1 imipramine internal standard, 5% ammonium hydroxide (25 μl), deionized water (100 μl) and 5% Tween-20 (20 μl), before vortexing. The processed samples were then added to pre-activated Strata-X Solid Phase Extraction cartridges (30 mg per 1 ml; Phenomenex), and washed with 500 μl of deionized water, followed by elution in 75/25 acetonitrile/methanol with 1% formic acid. […] The blood and tissue samples were then analysed using a validated bio-analytical, ultra-performance liquid chromatography tandem mass spectrometry method. […]

[3] = Blood-to-brain influx assessment (BBB transport); format: in vivo, ICR-CD-1 mice; details: mice
Method: Female, Institute for Cancer Research, Caesarean Derived-1 (ICR-CD-1) mice (7 to 10 weeks old; Envigo) were used to assess the in vivo blood-brain barrier (BBB) transport properties of AH-D peptide. The BBB permeability of AH-D was evaluated according to multiple time regression (MTR) analysis. In brief, mice were anesthetized by injecting 40% urethane intraperitoneally. Approximately 200 μl of AH-D peptide solution (10 mg kg^−1) was injected into the jugular internalis vein, then blood samples were collected from the carotid artery at selected time points after injection (minimum five time points per compound). Immediately after blood collection, the mice were euthanized by decapitation. The collected blood samples were centrifuged at 10,000 g for 15 min at 21° C. and the brains were isolated. The brain and the serum of each mouse were then analysed using a validated bio-analytical, ultrahigh-performance liquid chromatography tandem mass spectrometry method. Modelling of the data was performed according to the linear Gjedde-Patlak equation, giving the influx rate constant Kin (unidirectional clearance) of AH-D peptide. The molar concentration in the brain was also calculated by converting the mass of peptide per mass of brain tissue into the mass of peptide per volume of brain tissue by assuming the brain density to be 1.04 g ml^−1. […]

Row | Compound | Dependence of vesicle rupture on vesicle size (membrane-curvature sensing), single-vesicle analysis [1] | IC50 (DENV-1) [µM] | IC50 (DENV-2) [µM] | IC50 (DENV-3) [µM] | IC50 (DENV-4) [µM] | Bioavailability [2] | Circulation half-time ([2]; 25 mg kg−1 i.v.) | Blood brain barrier (BBB) crossing [3] | Blood brain barrier (BBB) crossing ([3]; listed as D-amino acid version of peptide 2)
1 | SGSWLRDVWDWICTVLTDFKTWLQSKL [Peptide N2O] | ruptured vesicles independently of vesicle size | 0.146 | 0.384 | 0.662 | 0.266 | – | – | – | –
2 | SGSWLRDVWDWICTVLTDFKTWLQSKL [Peptide N2N] | have membrane-curvature sensing mechanisms | 0.115 | 0.29 | 0.436 | 0.171 | – | – | – | –
3 | GSTWLRDIWDWVCTVLSDFRVWLKSKL [Peptide N11O] | – | 0.131 | 0.28 | 0.947 | 0.276 | – | – | – | –
4 | GDDWLHDIWDWVCIVLSDFKTWLSAKI [Peptide N8O] | – | 0.224 | 0.257 | 0.648 | 0.343 | – | – | – | –
5 | CC[C@@H](C)[C@@H](NC(=O)[C@@H](Cc1c[nH]c2ccccc12)NC(=O)[C@@H](CC(=O)O)NC(=O)[C@@H](Cc1c[nH]c2ccccc12)NC(=O)[C@H](NC(=O)[C@@H](CC(=O)O)NC(=O)[C@@H](CCCNC(=N)N)NC(=O)[C@@H](CC(C)C)NC(=O)[C@@H](Cc1c[nH]c2ccccc12)NC(=O)[C@@H](CO)NC(=O)CNC(=O)[C@H](N)CO)C(C)C)C(=O)N[C@H](CS)C(=O)N[C@@H](C(=O)N[C@@H](C(=O)N[C@H](CC(C)C)C(=O)N[C@@H](C(=O)N[C@H](CC(=O)O)C(=O)N[C@H](Cc1ccccc1)C(=O)N[C@H](CCCCN)C(=O)N[C@@H](C(=O)N[C@H](Cc1c[nH]c2ccccc12)C(=O)N[C@H](CC(C)C)C(=O)N[C@H](CCC(N)=O)C(=O)N[C@H](CO)C(=O)N[C@H](CCCCN)C(=O)N[C@H](CC(C)C)C(=O)O)[C@H](C)O)[C@H](C)O)C(C)C)[C@H](C)O [AH-D peptide] | – | – | – | – | – | high bioavailability | relatively long circulation half-time | able to cross the blood brain barrier | BBB-crossing activity to achieve therapeutic concentrations in the brain
6 | DGNWLYDIWNWVCTVLADFKLWLGAKI [Peptide O9O] | – | 0.05 | 0.193 | 0.119 | 0.139 | – | – | – | –
7 | SDDWLRTIWDWVCSVLADFKAWLSAKI [Peptide N7O] | – | 0.723 | 1.88 | 2.38 | 0.198 | – | – | – | –
8 | SGSWLRDVWDWVCTILTDFKNWLTSKL [Peptide N3O] | – | 0.182 | 0.308 | 1.02 | 0.288 | – | – | – | –
9 | SDDWLRIIWDWVCSVVSDFKAWLSAKI [Peptide N5O] | – | 0.235 | 0.839 | 1.59 | 0.649 | – | – | – | –
10 | SDDWLRIIWDWVCSVVSDFKAWLSAKI [Peptide O5O] | – | 0.0372 | 0.164 | 0.176 | 0.279 | – | – | – | –
